Laboratory results taken from patent US11512057B2, “Unsaturated hydrocarbon pyrimidine thioether compounds and preparation method and application thereof” (Zhejiang University of Technology, priority 2018, dated 2022).

Legend:
Format in all cases: in vivo
[1] = tested on: armyworm; experiment: Activity test of armyworm, leaf-dipping method; conditions: after 3 days
Protocol: A certain amount of the original drug was weighed by an analytical balance (0.0001 g), and dissolved in DMF containing 1% Tween-80 emulsifier to prepare a 1% mother liquor, which was then diluted with distilled water for later use.
The insecticidal efficacy was evaluated by a leaf-dipping method with the armyworm as a target and a spray method with Tetranychus cinnabarinus and Aphis craccivora Koch as a target.
Leaf-dipping method: the target for the test was the armyworm, and corn leaves in an appropriate amount were fully infiltrated in the prepared liquid, then dried naturally, placed in culture dishes with filter papers, inoculated with 3rd instar larvae of the armyworm at 10 heads/dish, and placed in an observation room and cultured at 24˜27° C. the results were investigated after 3 days. A brush was used to touch the insect bodies, and the unresponsive were regarded as dead insects.

[2] = tested on: powdery mildew of cucumber; experiment: Prevention experiment of powdery mildew of cucumber, living pot assay; conditions: 200 ppm; cucumber seedlings, about 10 days
Protocol: The living pot assay method was adopted, that is, the sample of the test compound was dissolved with a small amount of DMF solvent (the kind of solvent such as acetone, methanol, DMF, etc., is selected according to the solvency of the sample, and the volume ratio of the solvent amount to the spray amount is equal to or less than 0.05), diluted with water containing 0.1% Tween 80, and formulated into the test solution with a desired concentration. Cucumber seedlings at leaf period with the same growth period was sprayed evenly with the prepared agent, and aired. Each concentration was one treatment, each treatment was repeated 3 times, a control agent and a water of blank control were set separately. The fresh powdery mildew spores on the leaves of cucumbers were washed and filtered with double gauze to prepare a suspension with a concentration of about 100,000 spores/mL. The samples were inoculated by spraying, the inoculated samples were moved into artificial climate, and relative humidity was maintained at 60-70%, the temperature was maintained at 23° C., after about 10 days, grading investigation was carried out according to the morbidity of the blank control, control effect was calculated according to disease index.

[3] = tested on: adults of Tetranychus cinnabarinus; experiment: Acaricidal comparison, spray method on adults of Tetranychus cinnabarinus
Protocol: Spray method: the test target was Tetranychus cinnabarinus, that is, broad bean leaves inoculated with adults of Tetranychus cinnabarinus were placed under the spray treatment of Potter spray towers. After treatment, the Tetranychus cinnabarinus was placed in an observation room and cultured at 25˜27° C., and the results were investigated after 48 hours. The brush was used to touch the insect body, and the unresponsive were regarded as dead insects. The test concentrations of the compounds on killing cinnabarin were 50, 25, 12.5, 6.25, 3.125 mg/L.

[4] = tested on: eggs of Tetranychus cinnabarinus; experiment: Acaricidal comparison, egg test
Protocol: Egg test: each treated broad bean leave was inoculated with 10 adults of Tetranychus cinnabarinus, and the adults were removed after the eggs were laid for 24 hours. The leaves with eggs were sprayed under Potter spray towers. After treatment, the eggs of Tetranychus cinnabarinus were placed in an observation room and cultured at 25˜27° C. And the test was examined until the eggs under the blank treatment completely hatched out. The concentration of the compound that kills the eggs of Tetranychus cinnabarinus was 100, 50, 25, 12.5, 6.25 mg/L.

[5] = tested on: nymphs of Tetranychus cinnabarinus; experiment: Acaricidal comparison, nymph test
Protocol: Nymph test: broad bean leaves were inoculated with 10 adult mites, and the adults were removed after laying eggs for 24 hours. The eggs were fed in insect rearing room, and when they hatched into nymphs, they were sprayed with a sprayer. After treatment, the leaves with the nymphs were placed in an observation room and cultured at 25-27° C., and the results were investigated after 48 hours. A brush was used to touch the insect bodies, and the unresponsive were regarded as the dead. The test concentrations of the compound on killing cinnabarin were 5, 2.5, 1.25, 0.625, 0.3125 mg/L.

| Compound | lethal rate on armyworm larvae ([1]; 500 mg/L, 3rd instar larvae) | effect of preventing powdery mildew [2] | also measured |
| --- | --- | --- | --- |
| C=C(Cl)CSc1nc(CC)cc(OCc2ccccc2/C(=N\OC)C(=O)OC)n1 [Compound 180] | 100% | 100% |  |
| CO/N=C(/C(=O)OC)c1ccccc1COc1cc(C2CC2)nc(SCC=C(Cl)Cl)n1 [Compound 215] | 100% |  |  |
| COC(=O)N(OC)c1ccccc1COc1cc(C2CC2)nc(SCC=C(Cl)Cl)n1 [Compound 359] | 100% |  |  |
| CO/C=C(/C(=O)OC)c1ccccc1COc1cc(C(C)C)nc(SCCC=C(F)F)n1 [Compound 118] | 100% |  |  |
| C=C(Cl)CSc1nc(OCc2ccccc2/C(=N\OC)C(=O)OC)cc(C(F)(F)F)n1 [Compound 179] | 100% | 100% |  |
| C=C(Cl)CSc1nc(CC)cc(OCc2ccccc2/C(=C\OC)C(=O)OC)n1 [Compound 36] | 100% | 100% |  |
| CO/N=C(/C(=O)OC)c1ccccc1COc1cc(C(F)F)nc(SC/C=C/Cl)n1 [Compound 194] | 100% | 100% |  |
| CO/C=C(/C(=O)OC)c1ccccc1COc1cc(C2CC2)nc(SCCC=C(F)F)n1 [Compound 119] | 100% |  |  |
| C=CCSc1nc(C)cc(OCc2ccccc2/C(=N\OC)C(=O)OC)n1 [Compound 145] | 100% |  |  |
| COC(=O)N(OC)c1ccccc1COc1cc(C(F)F)nc(SC/C=C/Cl)n1 [Compound 338] | 100% |  |  |
| CCCc1cc(OCc2ccccc2/C(=N\OC)C(=O)OC)nc(SCCC=C(F)F)n1 [Compound 261] | 100% |  |  |
| C=CCSc1nc(C)cc(OCc2ccccc2/C(=C\OC)C(=O)OC)n1 [Compound 1] |  | 100% |  |
| CCc1cc(OCc2ccccc2/C(=N\OC)C(=O)OC)nc(SCCC=C(F)F)n1 [Compound 260] | 100% |  |  |
| CCCc1cc(OCc2ccccc2N(OC)C(=O)OC)nc(SCC=C(Cl)Cl)n1 [Compound 357] | 100% |  |  |
| C=C(Cl)CSc1nc(C)c(C)c(OCc2ccccc2/C(=N\OC)C(=O)OC)n1 [Compound 191] |  | 100% |  |
| C=CCSc1nc(OCc2ccccc2/C(=C\OC)C(=O)OC)c(Cl)c(C(F)F)n1 [Compound 9] | 100% | 100% |  |
| CCc1cc(OCc2ccccc2N(OC)C(=O)OC)nc(SCC=C(Cl)Cl)n1 [Compound 356] | 100% |  |  |
| CO/N=C(/C(=O)OC)c1ccccc1COc1cc(C)nc(SC/C=C/Cl)n1 [Compound 193] | 100% | 100% |  |
| CCc1cc(OCc2ccccc2/C(=C\OC)C(=O)OC)nc(SCCC=C(F)F)n1 [Compound 116] | 100% |  |  |
| C=CCSc1nc(OCc2ccccc2/C(=N\OC)C(=O)OC)cc(C(F)(F)F)n1 [Compound 147] | 100% |  |  |
| COC(=O)N(OC)c1ccccc1COc1cc(C(F)F)nc(SCC=C(Cl)Cl)n1 [Compound 354] | 100% |  |  |
| CCCc1cc(OCc2ccccc2/C(=C\OC)C(=O)OC)nc(SCCC=C(F)F)n1 [Compound 117] | 100% |  |  |
| CO/N=C(/C(=O)OC)c1ccccc1COc1cc(C2CC2)nc(SC/C=C/Cl)n1 [Compound 199] | 100% | 100% |  |
| CCCCc1c(C)nc(SCCC=C(F)F)nc1OCc1ccccc1/C(=C\OC)C(=O)OC [Compound 128] | 100% |  |  |

| Compound | lethal rate on armyworm larvae ([1]; 500 mg/L, 3rd instar larvae) | effect of preventing powdery mildew [2] | also measured |
| --- | --- | --- | --- |
| COC(=O)N(OC)c1ccccc1COc1cc(C)nc(SCC=C(Cl)Cl)n1 [Compound 353] | 100% |  |  |
| CO/C=C(/C(=O)OC)c1ccccc1COc1cc(C2CC2)nc(SC/C=C/Cl)n1 [Compound 55] |  | 100% |  |
| CO/C=C(/C(=O)OC)c1ccccc1COc1cc(C(F)(F)F)nc(SCC=C(Cl)Cl)n1 [Compound 67] | 100% | 100% | lethal rate against adult mites compared with fluacrypyrim ([3]; 50, 25, and 12.5 mg/L): better than that of fluacrypyrim; lethal rate on eggs of Tetranychus cinnabarinus compared with fluacrypyrim ([4]; 100, 50, 25, 12.5, 6.25 mg/L): better than that of fluacrypyrim; lethal rate on nymphs of Tetranychus cinnabarinus compared with fluacrypyrim ([5]; 5, 2.5, 1.25, 0.625, 0.3125 mg/L): better than that of fluacrypyrim |
| C=C(Cl)CSc1nc(OCc2ccccc2/C(=C\OC)C(=O)OC)cc(C(F)F)n1 [Compound 34] | 100% | 100% |  |
| CO/C=C(/C(=O)OC)c1ccccc1COc1cc(C(F)(F)F)nc(OC(C)C)n1 [Fluacrypyrim, fluacrypyrim] |  |  | mortality at 3.125 µg/mL ([3]; Tetranychus cinnabarinus, 48 h): 39.5%; mortality at 6.25 µg/mL ([3]; Tetranychus cinnabarinus, 48 h): 64.6%; mortality at 12.5 µg/mL ([3]; Tetranychus cinnabarinus, 48 h): 70.6%; mortality at 25 µg/mL ([3]; Tetranychus cinnabarinus, 48 h): 75.9%; mortality at 50 µg/mL ([3]; Tetranychus cinnabarinus, 48 h): 88.9%; mortality at 6.25 µg/mL ([4]; Tetranychus cinnabarinus): 10.8%; mortality at 12.5 µg/mL ([4]; Tetranychus cinnabarinus): 13.6%; mortality at 25 µg/mL ([4]; Tetranychus cinnabarinus): 32.2%; mortality at 50 µg/mL ([4]; Tetranychus cinnabarinus): 54.9%; mortality at 100 µg/mL ([4]; Tetranychus cinnabarinus): 75%; mortality at 0.3125 µg/mL ([5]; Tetranychus cinnabarinus, 48 h): 7.74%; mortality at 0.625 µg/mL ([5]; Tetranychus cinnabarinus, 48 h): 17.1%; mortality at 1.25 µg/mL ([5]; Tetranychus cinnabarinus, 48 h): 28.8%; mortality at 2.5 µg/mL ([5]; Tetranychus cinnabarinus, 48 h): 55.3%; mortality at 5 µg/mL ([5]; Tetranychus cinnabarinus, 48 h): 82.5% |
| CCc1cc(OCc2ccccc2C(=NOC)C(=O)NC)nc(SCCC=C(F)F)n1 [Compound 549] | 100% |  |  |
| CO/N=C(/C(=O)OC)c1ccccc1COc1cc(C(F)(F)F)nc(SCC=C(Cl)Cl)n1 [Compound 211] | 100% |  |  |
| CCc1cc(OCc2ccccc2/C(=C\OC)C(=O)OC)nc(SCC=C(Cl)Cl)n1 [Compound 68] |  |  | lethal rate on armyworm larvae ([1]; 100 mg/L): more than 80% |
| CO/N=C(/C(=O)OC)c1ccccc1COc1cc(C(C)C)nc(SCC=C(Cl)Cl)n1 [Compound 214] | 100% |  |  |
| CO/C=C(/C(=O)OC)c1ccccc1COc1cc(C(F)F)nc(SCCC=C(F)F)n1 [Compound 114] |  | 100% |  |
| COC(=O)N(OC)c1ccccc1COc1cc(C)nc(SC/C=C/Cl)n1 [Compound 337] | 100% |  |  |
| CO/C=C(/C(=O)OC)c1ccccc1COc1cc(C(F)(F)F)nc(SC/C=C/Cl)n1 [Compound 51] | 100% | 100% |  |
| CO/C=C(/C(=O)OC)c1ccccc1COc1cc(C)nc(SC/C=C/Cl)n1 [Compound 49] |  | 100% |  |
| C=C(Cl)CSc1nc(OCc2ccccc2/C(=C\OC)C(=O)OC)cc(C(F)(F)F)n1 [Compound 35] | 100% | 100% |  |
| CO/C=C(/C(=O)OC)c1ccccc1COc1nc(SCCC=C(F)F)nc(C)c1C [Compound 127] |  | 100% |  |
| CO/C=C(/C(=O)OC)c1ccccc1COc1cc(C(F)F)nc(SC/C=C/Cl)n1 [Compound 50] |  | 100% |  |
| COC(=O)N(OC)c1ccccc1COc1cc(C(C)C)nc(SCCC=C(F)F)n1 [Compound 406] | 100% |  |  |
| C=CCSc1nc(OCc2ccccc2/C(=N\OC)C(=O)OC)cc(C(F)F)n1 [Compound 146] |  | 100% |  |
| CO/C=C(/C(=O)OC)c1ccccc1COc1cc(C)nc(SCCC=C(F)F)n1 [Compound 113] | 100% | 100% |  |
| C=C(Cl)CSc1nc(C)cc(OCc2ccccc2/C(=N\OC)C(=O)OC)n1 [Compound 177] |  | 100% |  |
| CO/N=C(/C(=O)OC)c1ccccc1COc1nc(SCCC=C(F)F)nc(C)c1C [Compound 271] | 100% | 100% |  |
| CCCc1cc(OCc2ccccc2N(OC)C(=O)OC)nc(SCCC=C(F)F)n1 [Compound 405] | 100% |  |  |
| CCCc1cc(OCc2ccccc2/C(=N\OC)C(=O)OC)nc(SCC=C(Cl)Cl)n1 [Compound 213] | 100% |  |  |
